According to patent publication US20040097502A1, “Pyrazoles as tgf inhibitors” (priority 2001, published 2004):

How the values were obtained:
[1] = tested on: TGF-β signaling (PAI-1 promoter linked to firefly luciferase in HepG2 cells); assay: Assay 1: PAI-1 promoter luciferase reporter assay in HepG2 cells after exposure to TGF-β; format: cell-based; conditions: for IC50: Homo sapiens, HepG2 cells, PAI-1 promoter-luciferase, 1 ng/mL rhTGFβ-1, read-out: IC50 value in Assay 1 (inhibition of TGF-β induced firefly luciferase activity)
Protocol: The assay was performed in HepG2 cells stably transfected with the PAI-1 promoter (known to be a strong TGF-β responsive promoter) linked to a luciferase (firefly) reporter gene. The compounds were selected on their ability to inhibit luciferase activity after exposure to TGF-β. In addition cells were transfected with a second luciferase (Renilla) gene which was not driven by a TGF-β responsive promoter and was used as a toxicity control.
(96 well-)microplates are seeded, using a multidrop apparatus, with the stably transfected cell line at a concentration of 35000 cells per well in 200 μl of serum-containing medium. These plates are placed in a cell incubator.
18 to 24 hours later (Day 2), cell-incubation procedure is launched. Cells are incubated with TGF-β and a candidate compound at concentrations in the range 50 nM to 10 μM (final concentration of DMSO 1%). The final concentration of TGF-β (rhTGFβ-1) used in the test is 1 ng/mL. Cells are incubated with a candidate compound 15-30 mins prior to the addition of TGF-β. The final volume of the test reaction is 150 μl. Each well contains only one candidate compound and its effect on the PAI-1 promoter is monitored.
Columns 11 and 12 are employed as controls. Column 11 contains 8 wells in which the cells are incubated in the presence of TGF-β, without a candidate compound. Column 11 is used to determine the ‘reference TGF-β induced firefly luciferase value’ against which values measured in the test wells (to quantify inhibitory activity) may be compared. In wells A12 to D12, cells are grown in medium without TGF-β. The firefly luciferase values obtained from these positions are representive of the ‘basal firefly luciferase activity’. In wells E12 to H12, cells are incubated in the presence of TGF-β and 500 μM CPO (Cyclopentenone, Sigma), a cell toxic compound.
12 to 18 hours later (day 3), the luciferase quantification procedure is launched. The following reactions are performed using reagents obtained from a Dual Luciferase Assay Kit (Promega). Cells are washed and lysed with the addition of 10 μl of passive lysis buffer (Promega). Following agitation (15 to 30 mins), luciferase activities of the plates are read in a dual-injector luminometer (BMG lumistar). For this purpose, 50 μl of luciferase assay reagent and 50 μl of ‘Stop & Glo’ buffer are injected sequentially to quantify the activities of both luciferases. The mean Luciferase activity value obtained in wells A11 to H11 (Column 11, TGF-β only) is considered to represent 100% and values obtained in wells A12 to D12 (cells in medium alone) give a basal level (0%). For each of the compounds tested, a concentration response curve is constructed from which an IC50 value can be determined graphically.

Compound	melting point	IC50 [1]	firefly and renilla luciferase activities (toxicity control) ([1]; 500 μM CPO in the presence of TGF-β, % of those obtained in column 11 (TGF-β only))
CN1CCN(C(=O)c2ccc(Nc3cc(-c4c[nH]nc4-c4ccccn4)ccn3)cc2)CC1 [Example 26, (4-Methyl-piperazin-1-yl)-{4-[4-(3-pyridin-2-yl-1H-pyrazol-4-yl)-pyridin-2-ylamino]-phenyl}-methanone]	200 °C	≤ 5 µM	–
Cc1ccc(Nc2cc(-c3c[nH]nc3-c3ccccn3)ccn2)cc1C [Example 20, (3,4-Dimethyl-phenyl)-[4-(3-pyridin-2-yl-1H-pyrazol-4-yl)-pyridin-2-yl]-amine]	220 °C	≤ 5 µM	–
c1ccc(-c2n[nH]cc2-c2ccnc(NCc3ccco3)c2)nc1 [Example 4]	200 °C	≤ 5 µM	–
COc1ccc(Nc2cc(-c3c[nH]nc3-c3ccccn3)ccn2)cc1OC [Example 13, (3,4-Dimethoxy-phenyl)-[4-(3-pyridin-2-yl-1H-pyrazol-4-yl)-pyridin-2-yl]-amine]	210 °C	≤ 5 µM	–
Clc1ccc(Nc2cc(-c3c[nH]nc3-c3ccccn3)ccn2)cc1 [Example 1]	216 °C	≤ 5 µM	–
Cc1cccc(Nc2cc(-c3c[nH]nc3-c3ccccn3)ccn2)c1 [Example 11, [4-(3-Pyridin-2-yl-1H-pyrazol-4-yl)-pyridin-2-yl]-m-tolyl-amine]	194 °C	≤ 5 µM	–
N#Cc1cccc(Nc2cc(-c3c[nH]nc3-c3ccccn3)ccn2)c1 [Example 6]	228 °C	≤ 5 µM	–
CC(C)Oc1cccc(Nc2cc(-c3c[nH]nc3-c3ccccn3)ccn2)c1 [Example 22, (3-Isopropoxy-phenyl)-[4-(3-pyridin-2-yl-1H-pyrazol-4-yl)-pyridin-2-yl]-amine]	218 °C	≤ 5 µM	–
Cc1ccc(Nc2cc(-c3c[nH]nc3-c3ccccn3)ccn2)cc1 [Example 18, [4-(3-Pyridin-2-yl-1H-pyrazol-4-yl)-pyridin-2-yl]-p-tolyl-amine]	221 °C	≤ 5 µM	–
O=C1C=CCC1 [CPO, Cyclopentenone, reference compound]	–	–	around 50%
Cn1ccnc1COc1cccc(Nc2cc(-c3c[nH]nc3-c3ccccn3)ccn2)c1 [Example 28, [3-(1-Methyl-1H-imidazol-2-ylmethoxy)-phenyl]-[4-(3-pyridin-2-yl-1H-pyrazol-4-yl)-pyridin-2-yl]-amine]	120 °C	≤ 5 µM	–
COc1cc(Nc2cc(-c3c[nH]nc3-c3ccccn3)ccn2)ccc1C#N [Example 7]	280 °C	≤ 5 µM	–
CS(=O)(=O)c1ccc(Nc2cc(-c3c[nH]nc3-c3ccccn3)ccn2)cc1 [Example 23, (4-Methanesulfonyl-phenyl)-[4-(3-pyridin-2-yl-1H-pyrazol-4-yl)-pyridin-2-yl]-amine]	134 °C	≤ 5 µM	–
N#Cc1cc(Nc2cc(-c3c[nH]nc3-c3ccccn3)ccn2)ccc1Cl [Example 15, 2-Chloro-5-[4-(3-pyridin-2-yl-1H-pyrazol-4-yl)-pyridin-2-ylamino]-benzonitrile]	250 °C	≤ 5 µM	–
CS(=O)(=O)c1cccc(Nc2cc(-c3c[nH]nc3-c3ccccn3)ccn2)c1 [Example 5]	146 °C	≤ 5 µM	–
c1ccc(-c2n[nH]cc2-c2ccnc(Nc3ccc(OCCN4CCCC4)cc3)c2)nc1 [Example 12, [4-(3-Pyridin-2-yl-1H-pyrazol-4-yl)-pyridin-2-yl]-[4-(2-pyrrolidin-1-yl-ethoxy)-phenyl]-amine]	224 °C	≤ 5 µM	–
Cc1cc(Nc2cc(-c3c[nH]nc3-c3ccccn3)ccn2)ccc1Cl [Example 14, (4-Chloro-3-methyl-phenyl)-[4-(3-pyridin-2-yl-1H-pyrazol-4-yl)-pyridin-2-yl]-amine]	212 °C	≤ 5 µM	–
c1ccc(-c2n[nH]cc2-c2ccnc(Nc3cccc(OCCN4CCCCC4)c3)c2)nc1 [Example 8]	115 °C	≤ 5 µM	–
FC(F)(F)Oc1cccc(Nc2cc(-c3c[nH]nc3-c3ccccn3)ccn2)c1 [Example 19, [4-(3-Pyridin-2-yl-1H-pyrazol-4-yl)-pyridin-2-yl]-(3-trifluoromethoxy-phenyl)-amine]	102.8 °C	≤ 5 µM	–
COc1ccc(Nc2cc(-c3c[nH]nc3-c3ccccn3)ccn2)cc1 [Example 17, (4-Methoxy-phenyl)-[4-(3-pyridin-2-yl-1H-pyrazol-4-yl)-pyridin-2-yl]-amine]	219 °C	≤ 5 µM	–
O=C(c1ccc(Nc2cc(-c3c[nH]nc3-c3ccccn3)ccn2)cc1)N1CCOCC1 [Example 25, Morpholin-4-yl-{4-[4-(3-pyridin-2-yl-1H-pyrazol-4-yl)-pyridin-2-ylamino]-phenyl}methanone]	240 °C	≤ 5 µM	–
Oc1ccc(Nc2cc(-c3c[nH]nc3-c3ccccn3)ccn2)cc1 [Example 16, 4-[4-(3-Pyridin-2-yl-1H-pyrazol-4-yl)-pyridin-2-ylamino]-phenol]	268 °C	≤ 5 µM	–
COc1cc(Nc2cc(-c3c[nH]nc3-c3cccc(C)n3)ccn2)ccc1C#N [Example 24, 2-Methoxy-4-{4-[3-(6-methyl-pyridin-2-yl)-1H-pyrazol-4-yl]-pyridin-2-ylamino}-benzonitrile]	125 °C	≤ 5 µM	–
c1ccc(-c2n[nH]cc2-c2ccnc(Nc3ccc(OCCN4CCCCC4)cc3)c2)nc1 [Example 27, [4-(2-Piperidin-1-yl-ethoxy)phenyl]-[4-(3-pyridin-2-yl-1H-pyrazol-4-yl)-pyridin-2-yl]-amine]	176 °C	≤ 5 µM	–
Fc1ccc(Nc2cc(-c3c[nH]nc3-c3ccccn3)ccn2)cc1 [Example 3]	200 °C	≤ 5 µM	–
FC(F)(F)c1ccc(Nc2cc(-c3c[nH]nc3-c3ccccn3)ccn2)cc1 [Example 21, [4-(3-Pyridin-2-yl-1H-pyrazol-4-yl)-pyridin-2-yl]-(4-trifluoromethyl-phenyl)-amine]	207 °C	≤ 5 µM	–
c1ccc(-c2n[nH]cc2-c2ccnc(Nc3cccc(OCCN4CCCC4)c3)c2)nc1 [Example 9]	141 °C	≤ 5 µM	–
Clc1cccc(Nc2cc(-c3c[nH]nc3-c3ccccn3)ccn2)c1 [Example 10]	205 °C	≤ 5 µM	–
